This is an account of results in article PMC7407945, “Ranacyclin-NF, a Novel Bowman–Birk Type Protease Inhibitor from the Skin Secretion of the East Asian Frog, Pelophylax nigromaculatus” (Biology, 2020).

In brackets after ≈: the same amount, converted by molar mass. Read-outs that look alike come from different tables or passages of the source. Bridge positions count the residues as written; N and C are the ends. Ends that are not written are not given here. Peptide text beside a SMILES is read from it.

For series [1], the target named is T1, trypsin (Bos taurus, UniProt P00760).
T1 construct: gene PRSS1
T1 sequence (P00760 24-246): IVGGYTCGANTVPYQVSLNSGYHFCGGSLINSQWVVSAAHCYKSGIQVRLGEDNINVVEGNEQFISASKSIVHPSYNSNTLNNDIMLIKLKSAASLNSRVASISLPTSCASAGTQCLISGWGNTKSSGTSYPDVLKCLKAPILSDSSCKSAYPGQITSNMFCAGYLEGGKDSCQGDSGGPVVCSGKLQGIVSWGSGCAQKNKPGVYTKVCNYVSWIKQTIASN
Conditions: cited from earlier work. An excerpt: Amino acid residues at P5′ are shaded. | column: Trypsin Inhibition Ki (nM) || In previous studies, extensive studies have been made to reveal the role played by each residue within the TIL in overall enzyme inhibitory activity. However, factors outside this conserved disulphide loop, which may affect trypsin inhibition activity, have rarely been studied. In 2012, Wang et al. discovered the peptide, HJTI, and designed one molecular variant to study the role that cationicity played in trypsin inhibitory potency. They believed that structural features, especially for amino acid residues lying outside the TIL, were crucial in modulating the effectiveness of trypsin inhibito ...

Series [2] addresses T2, tryptase (Homo sapiens, UniProt Q15661).
T2 construct: purchased Calbiochem, Nottingham, UK
As to conditions: cited from earlier work; for tryptase inhibitory activity: result in words. An excerpt:
Therefore, the emergence of a novel tryptase inhibitor would be an asset in the treatment of some clinical diseases. […] Some publications believe that protease inhibitors cannot work effectively when it comes t ...

The conditions of series [3]: result in words; cited from earlier work. An excerpt: (§1) Therefore, ranacyclins firstly approach to the membrane surface through hydrophobic interaction and then, at sites where peptide concentrations reach a threshold, insert into the hydrophobic core of the membrane bilaye ...
The test system of another series is bacteria. As to conditions: result in words; cited from earlier work.
Description: as §1

The next series has as its system MRSA. Kind of series: Checkerboard assay, peptide with Gentamicin. Conditions: Staphylococcus aureus, 18 h. It counts as cell-based, Staphylococcus aureus. As to the method: Then, the microorganism cultures (1 × 10^6 cfu/mL) were inoculated into the plate wells and incubated at 37 °C for 18 h. The optical densities of the cultures were measured using an ELISA plate reader (Biotech Minneapolis, MN, USA). The lowest cumulative fractional inhibitory concentration (ΣFIC) was calculated with the following equation:(1) ΣFIC=Compound A treated in combination/Compound A, test in alone+Compound B treated in combination/Compound B, test in alone
ΣFIC ≤ 0.5 indicates synergy; 0.5 < Σ FIC ≤ 4 indicates an additive effect; and Σ FIC > 4 represents an antagonistic effect.

The target of a further series is chymotrypsin (Bos taurus, UniProt P00766). Further details: method as in 2 sources, ref 24 = [24]; PMID 28356487; doi:10.1042/BSR20160593; 24. Wu Y. Long Q. Xu Y. Guo S. Chen T. Wang L. Zhou M. Zhang Y. Shaw C. Walker B. A structural and functional analogue of a Bowman–Birk-type protease inhibitor from Odorrana schmackeri Biosci. Rep. 20 ||| ref 32 = [32]; PMID 31337113; doi:10.3390/biom9070280; 32. Miao Y. Chen G. Xi X. Ma C. Wang L. Burrows J. Duan J. Zhou M. Chen T. Discovery and Rational Design of a Novel Bowman-Birk Related Protease Inhibitor Biomolecules 2019 9 280 10.3390/biom9070280 3; key: N.I.: there was no inhibitory activity. Conditions: cited from earlier work.

Series [4] concerns Candida albicans (NCPF 1467). As to conditions: doubling-dilution method, up to 512 µM.
Series [5] has as its target T1, trypsin. Nature of the series: Trypsin inhibition assay. Conditions: substrate Phe-Pro-Arg-AMC. It counts as biochemical. As to the method: (§2) Trypsin and chymotrypsin inhibition assays were performed as previously described. The substrate of trypsin and chymotrypsin were Phe-Pro-Arg-AMC and Succinyl-Ala-Ala-Pro-Phe-NHMec, respectively, and obtained from Bachem, Merseyside, UK. In the tryptase inhibition assay, peptide samples were first dissolved in tryptase assay buffer pH 7.6, containing 0.05 M Tris, 0.15 M NaCl and 0.2% (w/v) PEG 6000 (final volume 210 μL) to obtain different concentrations of 0.5, 1, 2 and 4 mM and then added to the wells of a black 96-well plate containing (Boc-Phe-Ser-Arg-NHMec, obtained from Bachem, Merseyside, UK) (50 μM). Before measurement, tryptase (2.5 μL from 1 mg/mL stock solution, Calbiochem, Nottingham, UK) was added to each well. The rate of hydrolysis of substrate was monitored continuously at 37 °C and 460 nm with a Fluostar Optima plate reader (BMG Labtech GmbH, Offenburg, Germany)

For series [6], the system named is Enterococcus faecalis (NCTC 12697). Conditions: doubling-dilution method, up to 512 µM.
In series [7] the test system is Staphylococcus aureus (NCTC 10788). Conditions: doubling-dilution method, up to 512 µM.
In series [8] the test system is Klebsiella pneumoniae (ATCC43816). As to conditions: doubling-dilution method, up to 512 µM.
In series [9] the test system is Methicillin-resistant Staphylococcus aureus (MRSA) (NCTC 12493). As to conditions: doubling-dilution method, up to 512 µM.
The subject of series [10] is Pseudomonas aeruginosa (ATTC 27853). As to conditions: doubling-dilution method, up to 512 µM.
Series [11] concerns Escherichia coli (NCTC 10418). As to conditions: doubling-dilution method, up to 512 µM.
In series [12] the target is T2, tryptase. Kind of series: Tryptase inhibition assay. It counts as biochemical. Conditions: substrate Boc-Phe-Ser-Arg-NHMec 50 μM; pH 7.6, 0.05 M Tris, 0.15 M NaCl, 0.2% PEG 6000; 37 °C; 460 nm. As to the method:
as §2

A further series has as its system human normal cell lines. As to conditions: MTT, 24 h, highest concentration tested 100 µM; result in words. As for the experimental part:
(§3) Cells (5 × 10^3 cells/mL) were seeded into 96-well plates with FBS-containing fresh medium for 24 h. After that, cells were treated with corresponding serum-free culture medium for 12 h. […] After exposure for 6 h, all liquid was removed and 100 µL of DMSO was added. Finally, the absorbance of samples at 570 nm was determined using an ELISA plate reader (Biotech, Minneapolis, MN, USA).

Series [13] relates to HaCaT cells (human keratinocyte cell line). As to conditions: MTT, 24 h, 10^−9 to 10^−4 M; result in words. As to the method: as §3
For series [14], the system named is HMEC-1 cells (human microvascular endothelial cell line). As to conditions: MTT, 24 h, 10^−9 to 10^−4 M; result in words. As to the method: as §3

T2 sequence (Q15661 31-275): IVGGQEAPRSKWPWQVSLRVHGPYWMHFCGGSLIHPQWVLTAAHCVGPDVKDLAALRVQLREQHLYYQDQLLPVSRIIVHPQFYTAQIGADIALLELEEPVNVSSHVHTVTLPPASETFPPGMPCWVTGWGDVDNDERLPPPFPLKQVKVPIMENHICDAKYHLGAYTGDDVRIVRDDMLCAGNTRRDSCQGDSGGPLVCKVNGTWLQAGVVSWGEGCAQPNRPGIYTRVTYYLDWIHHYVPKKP

For “AALKGCWTKSIPPKPCF-NH2 (disulfide) (disulfide 6-16; N-terminus assumed; SMILES CC[C@H](C)[C@@H]1NC(=O)[C@H](CO)NC(=O)[C@H](CCCCN)NC(=O)[C@H]([C@@H](C)O)NC(=O)[C@H](Cc2c[nH]c3ccccc23)NC(=O)[C@@H](NC(=O)CNC(=O)[C@H](CCCCN)NC(=O)[C@H](CC(C)C)NC(=O)[C@H](C)NC(=O)[C@H](C)N)CSSC[C@@H](C(=O)N[C@@H](Cc2ccccc2)C(N)=O)NC(=O)[C@@H]2CCCN2C(=O)[C@H](CCCCN)NC(=O)[C@@H]2CCCN2C(=O)[C@@H]2CCCN2C1=O) [OSTI]”, the Ki (as a rule, a measure of affinity in units of concentration, obtained from inhibition or displacement) in the series with trypsin [1] was 0.0003 µM; with tryptase [2], 2.5 µM.
For the compound “GALRGCWTKSYPPKPCK-NH2 (disulfide) (disulfide 6-16) [Ranacyclin-T]”, the Ki in the series with trypsin [1] is 0.116 µM.
On to “GALRGCWTKSYPPKPCK-NH2 (disulfide 6-16 (inferred)) [Ranacyclin-T]”, for which the secondary structure entry in series [3] is recorded as “beta-sheet structure”. Further, the “antimicrobial activity with respect to RNF” value with bacteria is given as “relatively stronger antimicrobial activity”.
Take “GAPKGCWTKSYPPQPCS-NH2 (disulfide) (disulfide 6-16; N-terminus assumed; SMILES C[C@H](NC(=O)CN)C(=O)N1CCC[C@H]1C(=O)N[C@@H](CCCCN)C(=O)NCC(=O)N[C@H]1CSSC[C@@H](C(=O)N[C@@H](CO)C(N)=O)NC(=O)[C@@H]2CCCN2C(=O)[C@H](CCC(N)=O)NC(=O)[C@@H]2CCCN2C(=O)[C@@H]2CCCN2C(=O)[C@H](Cc2ccc(O)cc2)NC(=O)[C@H](CO)NC(=O)[C@H](CCCCN)NC(=O)[C@H]([C@@H](C)O)NC(=O)[C@H](Cc2c[nH]c3ccccc23)NC1=O) [HJTI, Odorrana hejiangensis]”: the Ki in the series with trypsin [1] was 0.388 µM.
Turning to `CNC(C)C1CCC(N)C(OC2C(N)CC(N)C(OC3OCC(C)(O)C(NC)C3O)C2O)O1` (stereo not shown) [Gentamicin], the MIC (as a rule, the lowest concentration found to suppress growth) in the series with MRSA (read-out: MIC of Gentamicin against MRSA, Gentamicin alone, 37 °C, 18 h) was determined as 2 µM; in the series with MRSA (read-out: MIC of Gentamicin against MRSA, in the presence of RNF and its analogues, 37 °C, 18 h) it was 1 µM.
As to “ALRGCWTKSIPPKPCP-NH2 (disulfide 5-15 (inferred)) [PPF-BBI]”, the tryptase inhibitory activity result on tryptase [2] is recorded as “obvious tryptase inhibitory activity”. Moreover, the “Ki(µM) of Chymotrypsin” value on chymotrypsin was “N.I”.
In series [4], `C[C@H](NC(=O)CN)C(=O)N1CCC[C@H]1C(=O)N[C@@H](CCCNC(=N)N)C(=O)NCC(=O)N[C@H]1CSSC[C@@H](C(=O)N[C@@H](Cc2ccccc2)C(=O)O)NC(=O)[C@@H]2CCCN2C(=O)[C@H](CCC(N)=O)NC(=O)[C@@H]2CCCN2C(=O)[C@@H]2CCCN2C(=O)[C@H](Cc2ccc(O)cc2)NC(=O)[C@H](CO)NC(=O)[C@H](CCCCN)NC(=O)[C@H]([C@@H](C)O)NC(=O)[C@H](Cc2c[nH]c3ccccc23)NC1=O` [RNF1] (H-GAPRGCWTKSYPPQPCF-OH; disulfide 6-16) had an MBC C. albicans of more than 512 µM and an MIC C. albicans of more than 512 µM. Moreover, affinity at trypsin [5] was put at a Ki of 1.3 µM. In [6], the MBC E. faecalis was more than 512 µM and the MIC E. faecalis is more than 512 µM. In series [7], this compound displayed an MBC S. aureus of more than 512 µM and an MIC S. aureus of more than 512 µM. In addition, in [8], the MBC K. pneumoniae was more than 512 µM and the MIC K. pneumoniae is more than 512 µM. In series [9], this compound came in with an MBC MRSA of more than 512 µM and an MIC MRSA of more than 512 µM. Also, in [10], the MBC P. aeruginosa is more than 512 µM and the MIC P. aeruginosa is more than 512 µM. Also, in series [11], the MBC E. coli was more than 512 µM and the MIC E. coli was more than 512 µM. Further, the affinity at tryptase [12], expressed as Ki, was 9.06 µM.
Turning to “AALKGCWTKSIPPKPCF-NH2 (disulfide 6-16 (inferred)) [OSTI]”, at tryptase [2], the tryptase inhibitory activity entry was “obvious tryptase inhibitory activity”. The “Ki(µM) of Chymotrypsin” value at chymotrypsin is listed as “N.I”.
In series [4], `C[C@H](NC(=O)CN)C(=O)N1CCC[C@H]1C(=O)N[C@@H](CCCNC(=N)N)C(=O)NCC(=O)N[C@H]1CSSC[C@@H](C(=O)N[C@@H](Cc2ccccc2)C(N)=O)NC(=O)[C@@H]2CCCN2C(=O)[C@H](CCC(N)=O)NC(=O)[C@@H]2CCCN2C(=O)[C@@H]2CCCN2C(=O)[C@H](Cc2ccc(O)cc2)NC(=O)[C@H](CO)NC(=O)[C@H](CCCCN)NC(=O)[C@H]([C@@H](C)O)NC(=O)[C@H](Cc2c[nH]c3ccccc23)NC1=O` [RNF] (H-GAPRGCWTKSYPPQPCF-NH2; disulfide 6-16) showed an MBC C. albicans of more than 512 µM and an MIC C. albicans of more than 512 µM. The compound also had an inhibition constant (Ki) on trypsin [5] of 0.447 µM. Further, in series [6], the MBC E. faecalis is more than 512 µM and the MIC E. faecalis is more than 512 µM. For the same compound, in [7], the MBC S. aureus was more than 512 µM and the MIC S. aureus came to 512 µM (≈ 969 µg/mL). In series [8], this compound came in with an MBC K. pneumoniae of more than 512 µM and an MIC K. pneumoniae of more than 512 µM. In addition, in series [9], the MBC MRSA is more than 512 µM and the MIC MRSA was more than 512 µM. In series [10], this compound yielded an MBC P. aeruginosa of more than 512 µM and an MIC P. aeruginosa of more than 512 µM. Also, the cytotoxicity entry with human normal cell lines is given as “negligible direct cytotoxicity”. The “cytotoxicity on HaCaT” value in [13] is “negligible cytotoxicity”. The “cytotoxicity on HMEC-1” value in series [14] is recorded as “negligible cytotoxicity”. Moreover, in series [11], the MBC E. coli is more than 512 µM and the MIC E. coli is more than 512 µM. Also, on tryptase [12], the inhibitory constant (Ki) is 6.77 µM.
For “ALRGCWTKSIPPKPCP-NH2 (disulfide) (disulfide 5-15; N-terminus assumed; SMILES CC[C@H](C)[C@@H]1NC(=O)[C@H](CO)NC(=O)[C@H](CCCCN)NC(=O)[C@H]([C@@H](C)O)NC(=O)[C@H](Cc2c[nH]c3ccccc23)NC(=O)[C@@H](NC(=O)CNC(=O)[C@H](CCCNC(=N)N)NC(=O)[C@H](CC(C)C)NC(=O)[C@H](C)N)CSSC[C@@H](C(=O)N2CCC[C@H]2C(N)=O)NC(=O)[C@@H]2CCCN2C(=O)[C@H](CCCCN)NC(=O)[C@@H]2CCCN2C(=O)[C@@H]2CCCN2C1=O) [PPF-BBI]”, the values for the Ki in the series with trypsin [1] and in the series with tryptase [2] were 0.17 µM and 30.7 µM, respectively.
